Drawing on US5140018A, “1,3,2-benzodithiazole-1-oxide compounds” (Abbott Laboratories, priority 1991, dated 1992), this text covers MIC for six compounds.

What all share (type): cell-based
For assay [1], the system named is Candida albicans ATCC 10231. Put plainly: In vitro antifungal MIC, Candida albicans ATCC 10231. To be noted: Candida albicans ATCC 10231, 35°-37° C., 48 hours. The procedure: (§1) The in vitro antifungal activity of the compounds of the present invention against a variety of fungiwas determined as follow: Test medium was prepared by dissolving first 5 g of dextrose and then 6.7 g of Bacto Yeast Nitrogen Base® (commercially available from Difco Laboratories) in 100 mL of distilled water. The solution was filter-sterilized and diluted 1:10 with 0.01M pH 8.0 phosphate buffer solution, and the final pH of the medium adjusted to about pH 7.0 when necessary with either 0.1N hydrochloric acid solution of 0.1N sodium hydroxide solution. […] These concentrated stock solutions were diluted to a concentration of 200 μg/mL (twice the highest concentration desired for testing) with the test medium. Amphotericin B, similarly prepared, was used as a reference antifungal agent.
(§2) The test organisms were then inoculated into test tubes containing approximately 3 to 10 mL of test medium and the test tubes incubated overnight at 37° C. A sample of each overnight culture was placed in a test tube and diluted using the test medium until a reading of 95% transmittance was obtained in a conventional UV/visible spectrophotometer set to 560 nm. The adjusted cultures were then diluted 1:50 with test medium. These diluted cultures served as the inocula for the assays which follow and were used within 15 minutes of preparation.
(§3) Next, 2-fold serial dilutions of each test compound in test medium were prepared in a 96-well microtiter plate using calibrated microdiluters attached to an automatic (hand-held) diluter (available from Dynatech Laboratories).
(§4) Using sterile calibrated droppers or a multi-point dispenser, the diluted inoculum suspension was added to each of the wells in the plate. When inoculation was complete, the microtiter tray was covered with a plastic plate sealer to minimize evaporation. After the plate had been sealed, a hole was made above each well with a sterile 26-gauge syringe needle in order to allow gas exchange. If plate sealers were not available, the microtiter trays were stacked in groups of five or less with an empty tray on top. The microtiter trays were then incubated in a humidified chamber at 35°-37° C. for 48 hours or until growth was visible in the growth control wells.
(§5) The minimum inhibitory concentration (MIC) was defined as the lowest concentration of test compound yielding no growth, a slight haze or sparsely isolated colonies on the inoculum spot as compared to the growth control containing no test compound.

In assay [2] the test system is Candida tropicalis NRRL-Y-112. Put plainly: In vitro antifungal MIC, Candida tropicalis NRRL-Y-112. The note with it: Candida tropicalis NRRL-Y-112, 35°-37° C., 48 hours. How it is done: as §1, §2, §3, §4, §5
Assay [3] has as its system Candida albicans ATCC 38247. Put plainly: In vitro antifungal MIC, Candida albicans ATCC 38247. The note with it: Candida albicans ATCC 38247, 35°-37° C., 48 hours. How it is done: as §1, §2, §3, §4, §5
The test system of another assay is Candida albicans CCH 442. Nature of the assay: In vitro antifungal MIC, Candida albicans CCH 442. The note with it: Candida albicans CCH 442, 35°-37° C., 48 hours. How it is done: as §1, §2, §3, §4, §5
Assay [4] deals with Torulopsis glabrata ATCC 15545. Put plainly: In vitro antifungal MIC, Torulopsis glabrata ATCC 15545. The note with it: Torulopsis glabrata ATCC 15545, 35°-37° C., 48 hours. The procedure:
as §1, §2, §3, §4, §5

Assay [5] deals with Cryptococcus albidus ATCC 34140. Put plainly: In vitro antifungal MIC, Cryptococcus albidus ATCC 34140. To be noted: Cryptococcus albidus ATCC 34140, 35°-37° C., 48 hours. How it is done:
as §1, §2, §3, §4, §5

Assay [6] has as its system Aspergillus niger ATCC 16404. Put plainly: In vitro antifungal MIC, Aspergillus niger ATCC 16404. To be noted: Aspergillus niger ATCC 16404, 35°-37° C., 48 hours. The procedure: as §1, §2, §3, §4, §5
Another assay deals with Candida kefyr ATCC 28838. Put plainly: In vitro antifungal MIC, Candida kefyr ATCC 28838. The note with it: Candida kefyr ATCC 28838, 35°-37° C., 48 hours. How it is done: as §1, §2, §3, §4, §5
The subject of assay [7] is Candida albicans ATCC 62376. Put plainly: In vitro antifungal MIC, Candida albicans ATCC 62376. The note with it: Candida albicans ATCC 62376, 35°-37° C., 48 hours. The procedure:
as §1, §2, §3, §4, §5

A further assay has as its system Candida albicans 579A. Put plainly: In vitro antifungal MIC, Candida albicans 579A. The note with it: Candida albicans 579A, 35°-37° C., 48 hours. How it is done: as §1, §2, §3, §4, §5
Where [8] appears, read: Nakaseomyces glabratus, ATCC15545, read-out: MIC.
Where [9] appears, read: Naganishia albida, ATCC34140, read-out: MIC.
Where [10] appears, read: Kluyveromyces marxianus, ATCC28838, read-out: MIC.

In brackets after ≈: the same amount, converted by molar mass. Where two headings read alike, the source gives them in different places.

The term MIC denotes the lowest concentration that inhibits growth of the organism. As for `CS(=O)(=O)OCCN1Sc2ccccc2[S+]1[O-]` (stereo not drawn) [Example 19, O-(2-(1,3,2-benzodithiazole-2-yl-1-oxide)ethyl)methanesulfonate], the minimal inhibitory concentration (MIC) in [1] (ATCC10231, read-out: MIC) is 50 µg/mL (≈ 170 µM); in assay [2] (NRRLY112, read-out: MIC), 25 µg/mL (≈ 85.2 µM); in [3] (ATCC38247, read-out: MIC), 100 µg/mL (≈ 341 µM); in the assay with Candida albicans CCH 442 (CCH442, read-out: MIC) it was 100 µg/mL (≈ 341 µM); in assay [4] (setting [8]) it was 6.25 µg/mL (≈ 21.3 µM); in assay [5] (setting [9]) it was 12.5 µg/mL (≈ 42.6 µM). For the same compound, the MIC in [6] (ATCC16404, read-out: MIC) is 12.5 µg/mL (≈ 42.6 µM); in the assay with Candida kefyr ATCC 28838 (setting [10]), 1.56 µg/mL (≈ 5.32 µM); in assay [7] (ATCC62376, read-out: MIC), 100 µg/mL (≈ 341 µM); in the assay with Candida albicans 579A (read-out: MIC), 50 µg/mL (≈ 170 µM).
As for `CCCCCCCN1Sc2ccccc2[S+]1[O-]` (stereo not drawn) [Example 5, 2-n-heptyl-1,3,2-benzodithiazole-1-oxide], the minimal inhibitory concentration (MIC) in assay [1] (ATCC10231, read-out: MIC) was determined as 0.39 µg/mL (≈ 1.45 µM); in assay [2] (NRRLY112, read-out: MIC), 0.78 µg/mL (≈ 2.89 µM); in assay [3] (ATCC38247, read-out: MIC) it was 0.78 µg/mL (≈ 2.89 µM); with Candida albicans CCH 442 (CCH442, read-out: MIC) it was 0.78 µg/mL (≈ 2.89 µM); in assay [4] (setting [8]) it was 0.39 µg/mL (≈ 1.45 µM); in [5] (setting [9]) it was 3.12 µg/mL (≈ 11.6 µM). Also, the MIC in [6] (ATCC16404, read-out: MIC) is 0.39 µg/mL (≈ 1.45 µM); in the assay on Candida kefyr ATCC 28838 (setting [10]) it was 0.39 µg/mL (≈ 1.45 µM); in [7] (ATCC62376, read-out: MIC), 0.78 µg/mL (≈ 2.89 µM); with Candida albicans 579A (read-out: MIC) it was 0.2 µg/mL (≈ 0.742 µM).
Regarding `O=C(O)COCCN1Sc2ccccc2[S+]1[O-]` (stereo not drawn) [Example 22, 2-(2-(1,3,2-benzodithiazole-2-yl-1-oxide)ethyloxy) acetic acid], the MIC in assay [1] (ATCC10231, read-out: MIC) was 100 µg/mL (≈ 366 µM); in assay [2] (NRRLY112, read-out: MIC) it was 100 µg/mL (≈ 366 µM); in assay [3] (ATCC38247, read-out: MIC) it was 50 µg/mL (≈ 183 µM); with Candida albicans CCH 442 (CCH442, read-out: MIC), 100 µg/mL (≈ 366 µM); in assay [4] (setting [8]), 100 µg/mL (≈ 366 µM); in assay [5] (setting [9]) it was 100 µg/mL (≈ 366 µM). Further, the minimal inhibitory concentration (MIC) in assay [6] (ATCC16404, read-out: MIC) is 25 µg/mL (≈ 91.5 µM); in the assay on Candida kefyr ATCC 28838 (setting [10]) it was 3.12 µg/mL (≈ 11.4 µM); in [7] (ATCC62376, read-out: MIC), 100 µg/mL (≈ 366 µM); in the assay on Candida albicans 579A (read-out: MIC), 100 µg/mL (≈ 366 µM).
Turning to `CN(C)CCCN1Sc2ccccc2[S+]1[O-]` (stereo not drawn) [Example 23, 2-(3-(N,N-dimethylamino)-n-propyl)-1,3,2-benzodithiazole-1-oxide], the MIC in [1] (ATCC10231, read-out: MIC) worked out at 50 µg/mL (≈ 195 µM); in assay [2] (NRRLY112, read-out: MIC), 50 µg/mL (≈ 195 µM); in [3] (ATCC38247, read-out: MIC), 12.5 µg/mL (≈ 48.8 µM); in the assay on Candida albicans CCH 442 (CCH442, read-out: MIC) it was 50 µg/mL (≈ 195 µM); in assay [4] (setting [8]), 50 µg/mL (≈ 195 µM); in assay [5] (setting [9]) it was 12.5 µg/mL (≈ 48.8 µM). Moreover, the MIC in assay [6] (ATCC16404, read-out: MIC) came out at 12.5 µg/mL (≈ 48.8 µM); in the assay with Candida kefyr ATCC 28838 (setting [10]), 3.12 µg/mL (≈ 12.2 µM); in assay [7] (ATCC62376, read-out: MIC), 50 µg/mL (≈ 195 µM); in the assay on Candida albicans 579A (read-out: MIC), 50 µg/mL (≈ 195 µM).
For the compound `CCCCCCCCN1Sc2ccccc2[S+]1[O-]` (stereo not drawn) [Example 6, 2-n-octyl-1,3,2-benzodithiazole-1-oxide], the MIC in assay [1] (ATCC10231, read-out: MIC) came out at 0.2 µg/mL (≈ 0.706 µM); in assay [2] (NRRLY112, read-out: MIC), 0.2 µg/mL (≈ 0.706 µM); in [3] (ATCC38247, read-out: MIC), 0.39 µg/mL (≈ 1.38 µM); with Candida albicans CCH 442 (CCH442, read-out: MIC) it was 0.2 µg/mL (≈ 0.706 µM); in assay [4] (setting [8]) it was 0.2 µg/mL (≈ 0.706 µM); in assay [5] (setting [9]), 3.12 µg/mL (≈ 11 µM). The minimal inhibitory concentration (MIC) was 0.2 µg/mL (≈ 0.706 µM) in assay [6] (ATCC16404, read-out: MIC); 0.1 µg/mL (≈ 0.353 µM) with Candida kefyr ATCC 28838 (setting [10]); 0.1 µg/mL (≈ 0.353 µM) in [7] (ATCC62376, read-out: MIC); 0.2 µg/mL (≈ 0.706 µM) in the assay on Candida albicans 579A (read-out: MIC).
With “2-phenylmethyl-5-methyl-1,3,2-benzodithiazole-1-oxide; 2-phenylmethyl-6-methyl-1,3,2-benzodithiazole-1-oxide [Example 41]”, the MIC came out at 1.56 µg/mL in assay [1]; 3.12 µg/mL in [2]; 0.39 µg/mL in [3]; 3.12 µg/mL against Candida albicans CCH 442; 3.12 µg/mL in assay [4]; 6.25 µg/mL in assay [5]. For the same compound, the MIC in assay [6] was 1.56 µg/mL; in the assay with Candida kefyr ATCC 28838 it was 0.78 µg/mL; in assay [7] it was 1.56 µg/mL; against Candida albicans 579A, 0.78 µg/mL.
